Legend:
Assay in all cases: MHK against further strains (Table 2)
Assay type in all cases: cell-based
[1] = test system: Acinetobacter baumannii PEG 10-12-26; details: Nr. 22 Acinetobacter baumannii PEG 10-12-26, clinical isolate
Protocol: (§1) The tests were performed using the micro dilution method.
(§2) The determination of MIC values was performed according to the ninth edition of the Approved Standard M07-A9 (CLSI. Methods for Dilution Antimicrobial Susceptibility Tests for Bacteria That Grow Aerobically; Approved Standard—Ninth Edition. CLSI document M07-A9. Wayne, Pa.: Clinical and Laboratory Standards Institute; 2012.)

[2] = test system: Acinetobacter baumannii PEG 10-57-24; details: Nr. 24 Acinetobacter baumannii PEG 10-57-24, clinical isolate
Protocol: as §1, §2

[3] = test system: Acinetobacter baumannii PEG 10-57-31; details: Nr. 23 Acinetobacter baumannii PEG 10-57-31, clinical isolate; KBE/ml 2.60E+05
Protocol: as §1, §2

[4] = test system: Acinetobacter baumannii PEG 10-86-5; details: Nr. 25 Acinetobacter baumannii PEG 10-86-5, clinical isolate; KBE/ml 2.00E+05
Protocol: as §1, §2

[5] = test system: Enterobacter aerogenes 220-1-22; details: Nr. 18 Enterobacter aerogenes 220-1-22, clinical isolate
Protocol: as §1, §2

[6] = test system: Enterobacter asburiae PEG-13-74-62; details: Nr. 19 Enterobacter asburiae PEG-13-74-62, clinical isolate; KBE/ml 8.20E+05
Protocol: as §1, §2

[7] = test system: Enterobacter cloacae PEG-10-52-78; details: Nr. 17 Enterobacter cloacae PEG-10-52-78, clinical isolate
Protocol: as §1, §2

[8] = test system: Enterococcus faecium PEG 13-17-59; details: Nr. 29 Enterococcus faecium PEG 13-17-59, clinical isolate
Protocol: as §1, §2

[9] = test system: Enterococcus faecium PEG 13-73-65; details: Nr. 30 Enterococcus faecium PEG 13-73-65, clinical isolate
Protocol: as §1, §2

[10] = test system: Enterococcus faecium PEG 13-9-13; details: Nr. 28 Enterococcus faecium PEG 13-9-13, clinical isolate
Protocol: as §1, §2

[11] = test system: Escherichia coli 100-2-49; details: Nr. 2 Escherichia coli 100-2-49, clinical isolate; KBE/ml 3.80E+05
Protocol: as §1, §2

[12] = test system: Escherichia coli 100-2-56; details: Nr. 3 Escherichia coli 100-2-56, clinical isolate
Protocol: as §1, §2

[13] = test system: Escherichia coli ATCC 25922; details: Nr. 1 Escherichia coli ATCC 25922; KBE/ml 2.80E+05
Protocol: as §1, §2

[14] = test system: Escherichia coli PEG 10-2-81; details: Nr. 10 Escherichia coli PEG 10-2-81, clinical isolate
Protocol: as §1, §2

[15] = test system: Escherichia coli PEG 10-79-22; details: Nr. 11 Escherichia coli PEG 10-79-22, clinical isolate
Protocol: as §1, §2

[16] = test system: Klebsiella oxytoca PEG-10-45-54; details: Nr. 16 Klebsiella oxytoca PEG-10-45-54, clinical isolate; KBE/ml 4.40E+05
Protocol: as §1, §2

[17] = test system: Klebsiella oxytoca PEG-10-75-18; details: Nr. 15 Klebsiella oxytoca PEG-10-75-18, clinical isolate
Protocol: as §1, §2

[18] = test system: Klebsiella pneumoniae 310-1-54; details: Nr. 14 Klebsiella pneumoniae 310-1-54, clinical isolate
Protocol: as §1, §2

[19] = test system: Klebsiella pneumoniae PEG-10-20-4; details: Nr. 4 Klebsiella pneumoniae PEG-10-20-4, clinical isolate
Protocol: as §1, §2

[20] = test system: Klebsiella pneumoniae PEG-10-48-8; details: Nr. 12 Klebsiella pneumoniae PEG-10-48-8, clinical isolate
Protocol: as §1, §2

[21] = test system: Klebsiella pneumoniae PEG-10-75-61; details: Nr. 13 Klebsiella pneumoniae PEG-10-75-61, clinical isolate; KBE/ml 4.00E+05
Protocol: as §1, §2

[22] = test system: Klebsiella pneumoniae PEG-10-90-74; details: Nr. 5 Klebsiella pneumoniae PEG-10-90-74, clinical isolate; KBE/ml 4.00E+05
Protocol: as §1, §2

[23] = test system: Pseudomonas aeruginosa ATCC 27853; details: Nr. 6 Pseudomonas aeruginosa ATCC 27853; KBE/ml 5.60E+05
Protocol: as §1, §2

[24] = test system: Pseudomonas aeruginosa PEG-10-2-61; details: Nr. 7 Pseudomonas aeruginosa PEG-10-2-61, clinical isolate
Protocol: as §1, §2

[25] = test system: Pseudomonas aeruginosa PEG-10-44-76; details: Nr. 21 Pseudomonas aeruginosa PEG-10-44-76, clinical isolate
Protocol: as §1, §2

[26] = test system: Pseudomonas aeruginosa PEG-10-47-57; details: Nr. 20 Pseudomonas aeruginosa PEG-10-47-57, clinical isolate
Protocol: as §1, §2

[27] = test system: Staphylococcus aureus ATCC 29213; details: Nr. 8 Staphylococcus aureus ATCC 29213; KBE/ml 6.60E+05
Protocol: as §1, §2

[28] = test system: Staphylococcus aureus PEG 10-38-22; details: Nr. 9 Staphylococcus aureus PEG 10-38-22, clinical isolate
Protocol: as §1, §2

[29] = test system: Staphylococcus aureus PEG 13-18-19; details: Nr. 26 Staphylococcus aureus PEG 13-18-19, clinical isolate
Protocol: as §1, §2

[30] = test system: Staphylococcus aureus PEG 13-71-26; details: Nr. 27 Staphylococcus aureus PEG 13-71-26, clinical isolate
Protocol: as §1, §2

Structure (SMILES)	MHK [1]	MHK [2]	MHK [3]	MHK [4]	MHK [5]	MHK [6]	MHK [7]	MHK [8]	MHK [9]	MHK [10]	MHK [11]	MHK [12]	MHK [13]	MHK [14]	MHK [15]	MHK [16]	MHK [17]	MHK [18]	MHK [19]	MHK [20]	other results
COc1c(NC(=O)c2ccc(NC(=O)c3ccc(NC(=O)[C@H](Cc4c[nH]cn4)NC(=O)c4ccc(NC(=O)/C(C)=C/c5ccc(O)cc5)cc4)cc3)c(OC)c2O)ccc(C(=O)O)c1O [Compound 1, L-His-albicidin]	16 mg/L	2 mg/L	32 mg/L	4 mg/L	32 mg/L	32 mg/L	32 mg/L	32 mg/L	32 mg/L	32 mg/L	0.5 mg/L	2 mg/L	0.063 mg/L	0.5 mg/L	0.25 mg/L	4 mg/L	32 mg/L	32 mg/L	32 mg/L	32 mg/L	MHK [21]: 32 mg/L; MHK [22]: 32 mg/L; MHK [23]: 2 mg/L; MHK [24]: 32 mg/L; MHK [25]: 4 mg/L; MHK [26]: 8 mg/L; MHK [27]: 8 mg/L; MHK [28]: 32 mg/L; MHK [29]: 8 mg/L; MHK [30]: 4 mg/L
COc1c(NC(=O)c2ccc(NC(=O)c3ccc(NC(=O)[C@@H](CN(C)C)NC(=O)c4ccc(NC(=O)/C(C)=C/c5ccc(O)cc5)cc4)cc3)c(OC)c2O)ccc(C(=O)O)c1O [Compound 16, D-DMDAP-Albicidin]	32 mg/L	32 mg/L	32 mg/L	32 mg/L	32 mg/L	32 mg/L	32 mg/L	32 mg/L	32 mg/L	32 mg/L	32 mg/L	32 mg/L	16 mg/L	32 mg/L	32 mg/L	32 mg/L	32 mg/L	32 mg/L	32 mg/L	32 mg/L	MHK [21]: 32 mg/L; MHK [22]: 32 mg/L; MHK [23]: 32 mg/L; MHK [24]: 32 mg/L; MHK [25]: 32 mg/L; MHK [26]: 32 mg/L; MHK [27]: 32 mg/L; MHK [28]: 32 mg/L; MHK [29]: 32 mg/L; MHK [30]: 32 mg/L
COc1c(NC(=O)c2ccc(NC(=O)c3ccc(NC(=O)[C@H](CN(C)C)NC(=O)c4ccc(NC(=O)/C(C)=C/c5ccc(O)cc5)cc4)cc3)c(OC)c2O)ccc(C(=O)O)c1O [Compound 2, L-DMDAP-Albicidin]	32 mg/L	32 mg/L	32 mg/L	32 mg/L	32 mg/L	32 mg/L	32 mg/L	32 mg/L	32 mg/L	32 mg/L	32 mg/L	32 mg/L	0.125 mg/L	32 mg/L	32 mg/L	32 mg/L	32 mg/L	32 mg/L	32 mg/L	32 mg/L	MHK [21]: 32 mg/L; MHK [22]: 32 mg/L; MHK [23]: 32 mg/L; MHK [24]: 32 mg/L; MHK [25]: 32 mg/L; MHK [26]: 32 mg/L; MHK [27]: 32 mg/L; MHK [28]: 32 mg/L; MHK [29]: 32 mg/L; MHK [30]: 32 mg/L
COc1c(NC(=O)c2ccc(NC(=O)c3ccc(NC(=O)C(Cc4c[nH]nn4)NC(=O)c4ccc(NC(=O)/C(C)=C/c5ccc(O)cc5)cc4)cc3)c(OC)c2O)ccc(C(=O)O)c1O [Compound 3, L-Azahis-Albicidin]	16 mg/L	1 mg/L	32 mg/L	4 mg/L	4 mg/L	32 mg/L	32 mg/L	8 mg/L	8 mg/L	8 mg/L	0.063 mg/L	0.25 mg/L	0.008 mg/L	0.063 mg/L	0.063 mg/L	0.5 mg/L	8 mg/L	32 mg/L	32 mg/L	32 mg/L	MHK [21]: 32 mg/L; MHK [22]: 32 mg/L; MHK [23]: 1 mg/L; MHK [24]: 8 mg/L; MHK [25]: 0.5 mg/L; MHK [26]: 4 mg/L; MHK [27]: 0.5 mg/L; MHK [28]: 2 mg/L; MHK [29]: 0.5 mg/L; MHK [30]: 0.125 mg/L

Reference: US11225465B2, “Albicidin derivatives, their use and synthesis” (TECHNISCHE UNIVERSITÄT BERLIN, priority 2017, dated 2022)
